The source of these data is publication PMC3958853, “Characterization and Antioxidant Properties of Six Algerian Propolis Extracts: Ethyl Acetate Extracts Inhibit Myeloperoxidase Activity” (International Journal of Molecular Sciences, 2014).

Experiment [1] concerns the target T1, recombinant MPO (Homo sapiens, UniProt P05164).
T1 construct: made in house
T1 sequence (P05164 49-745): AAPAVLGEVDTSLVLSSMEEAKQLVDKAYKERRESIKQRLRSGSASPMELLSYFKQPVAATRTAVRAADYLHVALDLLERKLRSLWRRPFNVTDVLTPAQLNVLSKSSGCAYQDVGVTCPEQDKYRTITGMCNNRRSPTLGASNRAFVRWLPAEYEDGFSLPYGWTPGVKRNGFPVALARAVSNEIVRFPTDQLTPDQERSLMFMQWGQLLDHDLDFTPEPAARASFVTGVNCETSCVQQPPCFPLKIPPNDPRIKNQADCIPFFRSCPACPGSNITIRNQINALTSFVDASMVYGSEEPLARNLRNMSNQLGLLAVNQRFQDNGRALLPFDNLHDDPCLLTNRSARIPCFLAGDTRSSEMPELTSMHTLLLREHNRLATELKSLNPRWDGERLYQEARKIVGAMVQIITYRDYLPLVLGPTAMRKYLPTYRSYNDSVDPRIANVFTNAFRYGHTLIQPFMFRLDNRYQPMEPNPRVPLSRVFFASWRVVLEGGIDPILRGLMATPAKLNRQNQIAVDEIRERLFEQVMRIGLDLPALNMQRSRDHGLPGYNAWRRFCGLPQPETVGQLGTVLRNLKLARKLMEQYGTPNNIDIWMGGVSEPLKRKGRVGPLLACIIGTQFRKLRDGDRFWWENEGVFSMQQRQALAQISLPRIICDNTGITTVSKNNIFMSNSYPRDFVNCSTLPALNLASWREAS
Description: Myeloperoxidase inhibition assay (taurine chloramine). In kind it is biochemical. The conditions noted are these: pure compounds, read-out: IC50 (μM) ± SD for MPO. On the procedure: The recombinant MPO was produced as previously described Moguilevsky et al. and each batch solution was characterized by its protein concentration (mg/mL), its activity (U/mL), and its specific activity (U/mg). The chlorination activity was determined according to Hewson and Hager, (1979). Human plasma served for the isolation of LDL by ultracentrifugation according to Havel et al. (1955). Before oxidation, the LDL fraction (1.019 < d < 1.067 g/mL) was desalted by two consecutive passages through PD10 gel-filtration columns (Amersham Biosciences, Hoevelaken, The Netherlands) using PBS buffer. The different steps were carried out in the dark, and the protein concentration was measured by the Lowry assay for both MPO and LDL [57].
The assay was based on the production of taurine chloramine by the MPO/H2O2/Cl^− system which can be determined by means of 5-thio-2-nitrobenzoic acid (TNB) in the presence of a selected inhibitor at defined concentration. The reaction mixture contained the following reagents in a final volume of 200 μL:pH 7.4 phosphate buffer (10 mM PO4^3−/300 mM NaCl), taurine (15 mM), extraction solutions of propolis, and the fixed amount of the recombinant MPO (6 μL of MPO batch solution diluted 2.5 times, 40 nM). When necessary, the volume was adjusted with water. This mixture was incubated at 37 °C and the reaction initiated with 10.0 μL of H2O2 (100 μM). After 5 min, the reaction was stopped by the addition of 10 μL of catalase (8 U/μL). To determine the amount of taurine chloramines produced, 50 μL of 1.35 mM solution of TNB were added and the volume adjusted to 300 μL with water. Then, the absorbance of the solutions was measured at 412 nm with a microplate reader and the curve of the absorbance as a function of the inhibitor concentration was plotted. To remove the influence of HOCl scavenging carried out by the extracts, the same procedure of MPO inhibition assay was done but with addition of 6 μL of HOCl (60 μM) instead of the solution of MPO and H2O2.

Experiment [2] deals with T1, recombinant MPO. The conditions noted are these: stated among literature reports, no reference given; cited from earlier work.

SMILES strings stand for the structures. Values joined by “and” are separate entries in the source; they are usually repeats but may differ in a detail not shown here. Equal values may be shown once. Read-outs that look alike come from different tables or passages of the source.

In general, IC50 refers to the concentration at which inhibition is half-maximal.

As for `CC(C)c1c(O)ccc2c1CC[C@H]1C(C)(C)CCC[C@]21C` [Totarol], the IC50 at recombinant MPO [1] is > 10 µM.

Regarding `O=c1c(O)c(-c2ccc(O)cc2)oc2cc(O)cc(O)c12` [Kaempferol], the IC50 at recombinant MPO [1] is 4.1 µM and 4 µM. `O=c1c(O)c(-c2ccccc2)oc2cc(O)cc(O)c12` [Galangin]: at recombinant MPO [1], the IC50 is > 10 µM. On to `COc1cc(/C=C/C(=O)O)ccc1O` [Ferulic acid], for which, on recombinant MPO [1], the IC50 amounted to 6 ± 3 µM. On to `O=c1cc(-c2ccccc2)oc2cc(O)cc(O)c12` [Chrysin], for which the IC50 at recombinant MPO [1] is 8 ± 2 µM. On to `O=c1c(-c2ccc(O)cc2)coc2cc(O)cc(O)c12` [Genistein], for which the IC50 at recombinant MPO [1] was > 10 µM. Take `O=C(O)/C=C/c1ccccc1` [Cinnamic acid]: the IC50 at recombinant MPO [1] is 9 ± 4 µM.

Consider `O=c1c(O)c(-c2ccc(O)c(O)c2)oc2cc(O)cc(O)c12` [Quercetin], for which the IC50 at recombinant MPO [2] is ~5 µM. `COc1ccc(-c2cc(=O)c3c(O)cc(O)cc3o2)cc1` [Acacetin]: the IC50 on recombinant MPO [1] came out at 9 ± 2 µM. Same read-out and setting: then `O=C(O)/C=C/c1ccc(O)c(O)c1` [Caffeic acid], with > 10 µM.
